The values that follow come from ChEMBL document CHEMBL4052645, “Discovery of potent and efficacious pyrrolopyridazines as dual JAK1/3 inhibitors” (Bioorg Med Chem Lett, 2017).

The subject of data set [1] is Mus musculus. Nature of the data set: Antiarthritic activity in collagen-induced mouse model assessed as […] at 2 mg/kg, po qd up to 41 days. Type of data set: functional, organism-based.
The species named for data set [2] is Mus musculus. Kind of data set: Clearance of compound in mouse relative to hepatic blood flow. Type of data set: ADME. The settings on record: in vivo.
A short description of data set [3]: Clearance of compound in mouse. In kind it is ADME, organism-based. The settings on record: in vivo.
A short description of data set [4]: Drug concentration in mouse at 2 mg/kg, po qd after 24 hrs. In kind it is ADME, organism-based. The settings on record: in vivo, read-out: Drug uptake.
The test system of data set [5] is Phosphatidylinositol 4,5-bisphosphate 3-kinase catalytic subunit alpha isoform (Homo sapiens), P42336 [H1047L]. Nature of the data set: Inhibition of human partial length PIK3CA H1047L mutant (R108 to N1068 residues) expressed in mammalian expression system assessed as residual activity at 50 nM by Kinomescan method relative to control.
Data set [6] relates to Mus musculus. Kind of data set: Antiarthritic activity in collagen-induced arthritis mouse model assessed as reduction in inflammation at 10 mg/kg, po qd measured up to 41 days. Type of data set: functional, organism-based.
Data set [7] is described as follows: Drug concentration in mouse at 10 mg/kg, po qd after 24 hrs. In kind it is ADME, organism-based. The following applies: in vivo, read-out: Drug uptake.
Data set [8] in a line: Oral bioavailability in mouse. In kind it is ADME, organism-based. The following applies: in vivo.
Data set [9] deals with Oryctolagus cuniculus. Kind of data set: Cardiotoxicity in rabbit assessed as decrease in mean arterial blood pressure at >3 mg/kg. Type of data set: toxicity, organism-based. The settings on record: in vivo.
Data set [10] deals with Cyclin-dependent kinase-like 2 (Homo sapiens) (UniProt Q92772). Kind of data set: Inhibition of wild-type human partial length CDKL2 (M1 to D327 residues) expressed in bacterial expression system assessed as residual activity at 50 nM by Kinomescan method relative to control.
A short description of data set [11]: Cmax in BALB/c mouse at 10 mg/kg, po. Set-up: dose 10 mg/kg, route oral. In kind it is ADME, organism-based. The settings on record: in vivo.
The nature of data set [12]: Half life in human liver microsomes. In kind it is ADME, microsome. Background: Liver microsomes are vesicles of endoplasmic reticulum, rich in cytochrome P450 enzymes.
Data set [13] is described as follows: Metabolic stability in mouse liver microsomes assessed as compound remaining after 10 mins. Type of data set: ADME, microsome. The settings on record: read-out: Stability.
Data set [14] can be described thus: Permeability from apical side to basolateral side in human Caco2 cells. In kind it is ADME, cell-based. The settings on record: Caco-2, read-out: permeability. Background: Passage across Caco-2 layers is used to estimate intestinal permeability.
Data set [15] deals with Calcium/calmodulin-dependent protein kinase type 1 (Homo sapiens) (UniProt Q14012). Nature of the data set: Inhibition of wild-type human full length CAMK1A (M1 to L370 residues) expressed in bacterial expression system assessed as residual activity at 50 nM by Kinomescan method relative to control.
Data set [16] in a line: Volume of distribution at steady state in Sprague-Dawley rat at 2 mg/kg, iv. Type of data set: ADME, organism-based. The settings on record: in vivo, read-out: Vdss.
Data set [17] is described as follows: Selectivity ratio of IC50 for JAK2 dependent EPO-induced STAT5A phosphorylation in human TF1 cells to IC50 for JAK1/JAK3 dependent IL2-induced STAT3 phosphorylation in human PBMC derived T-cells.
For data set [18], the system named is Oryctolagus cuniculus. Kind of data set: Cardiotoxicity in rabbit assessed as increase in heart rate at >3 mg/kg. Type of data set: toxicity, organism-based. The following applies: in vivo.
Data set [19] is described as follows: AUC in Sprague-Dawley rat at 2 mg/kg, iv. Type of data set: ADME, organism-based. The settings on record: in vivo.
Data set [20] in a line: Volume of distribution at steady state in BALB/c mouse at 2 mg/kg, iv. The following applies: in vivo, read-out: Vdss. In kind it is ADME, organism-based.
For data set [21], the system named is Rattus norvegicus. Nature of the data set: Cardiotoxicity in rat assessed as decrease in blood pressure at 30 mg/kg, po. Type of data set: toxicity, organism-based. Set-up: scale not given: the % may be the effect or the level left. The following applies: in vivo.
In data set [22] the test system is Ribosomal protein S6 kinase alpha-2. Kind of data set: Inhibition of wild-type human partial length C-terminal RSK3 kinase domain 2 (V403 to K700 residues) expressed in bacterial expression system assessed as residual activity at 50 nM by Kinomescan method relative to control.
Data set [23] deals with Mitogen-activated protein kinase 9 (Homo sapiens) (UniProt P45984). Nature of the data set: Inhibition of wild-type human full length JNK2 (M1 to Q382 residues) expressed in mammalian expression system assessed as residual activity at 50 nM by Kinomescan method relative to control.
Data set [24] can be described thus: AUC in Sprague-Dawley rat at 10 mg/kg, po. Type of data set: ADME, organism-based. The following applies: in vivo.
The nature of data set [25]: Half life in BALB/c mouse at 2 mg/kg, iv. The following applies: in vivo. In kind it is ADME, organism-based.
Data set [26] has as its target Tyrosine-protein kinase Lyn (Homo sapiens) (UniProt P07948). Kind of data set: Inhibition of wild-type human partial length LYN (C219 to Q511 residues) expressed in bacterial expression system assessed as residual activity at 50 nM by Kinomescan method relative to control.
The species entered for data set [27] is Homo sapiens. Kind of data set: Inhibition of calcium channel (unknown origin) at 10 uM by patch clamp assay. In general terms: The patch-clamp technique gives a direct electrical read-out from membranes.
The target of data set [28] is Casein kinase I isoform alpha (Homo sapiens) (UniProt P48729). Nature of the data set: Inhibition of wild-type human partial length CK1A (M1 to L450 residues) expressed in mammalian expression system assessed as residual activity at 50 nM by Kinomescan method relative to control.
Data set [29] concerns the target Serine/threonine-protein kinase PLK4 (Homo sapiens) (UniProt O00444). Nature of the data set: Inhibition of wild-type human partial length PLK4 (M1 to S273 residues) expressed in mammalian expression system assessed as residual activity at 50 nM by Kinomescan method relative to control.
Data set [30] has as its target Serine/threonine-protein kinase 16 (Homo sapiens) (UniProt O75716). Kind of data set: Inhibition of wild-type human partial length STK16 (G11 to I305 residues) expressed in bacterial expression system assessed as residual activity at 50 nM by Kinomescan method relative to control.
In data set [31] the target is Serine/threonine-protein kinase DCLK2 (Homo sapiens) (UniProt Q8N568). Nature of the data set: Inhibition of wild-type human partial length DCAMKL2 (K273 to V664 residues) expressed in bacterial expression system assessed as residual activity at 50 nM by Kinomescan method relative to control.
Data set [32] in a line: Half life in BALB/c mouse at 10 mg/kg, po. In kind it is ADME, organism-based. The settings on record: in vivo.
Data set [33] is described as follows: Inhibition of ACTR2 (unknown origin) assessed as residual activity at 50 nM by Kinomescan method relative to control. The following applies: Homo sapiens.
The target in data set [34] is Protein kinase C iota type (Homo sapiens) (UniProt P41743). Nature of the data set: Inhibition of recombinant human PKCiota (H215 to V587 residues) expressed in mammalian expression system assessed as residual activity at 50 nM by Kinomescan method relative to control.
Data set [35] concerns the target Voltage-gated inwardly rectifying potassium channel KCNH2 (Homo sapiens, UniProt Q12809). Kind of data set: Inhibition of human ERG by patch clamp method.
A short description of data set [36]: Protein binding in rat plasma. In kind it is ADME, cell-free. The following applies: read-out: PPB (converted).
Data set [37] can be described thus: AUC in BALB/c mouse at 2 mg/kg, iv. Type of data set: ADME, organism-based. The following applies: in vivo.
Data set [38] is described as follows: Half life in Sprague-Dawley rat at 10 mg/kg, po. Type of data set: ADME, organism-based. The following applies: in vivo.
Data set [39] in a line: Tmax in BALB/c mouse at 10 mg/kg, po. Type of data set: ADME, organism-based. The settings on record: in vivo.
Data set [40] in a line: Protein binding in human plasma. Type of data set: ADME, cell-free. The following applies: read-out: PPB (converted).
Data set [41] is described as follows: Cmax in Sprague-Dawley rat at 10 mg/kg, po. In kind it is ADME, organism-based. More on the design: dose 10 mg/kg, route oral. The settings on record: in vivo.
Data set [42] is filed under the species Homo sapiens. Nature of the data set: Inhibition of sodium channel (unknown origin) at 10 uM by patch clamp assay.
Data set [43] concerns the target Nuclear receptor subfamily 1 group I member 2 (Homo sapiens, UniProt O75469). Kind of data set: Activation of PXR (unknown origin). In kind it is ADME.
Data set [44] deals with Rattus norvegicus. Nature of the data set: Cardiotoxicity in rat assessed as decrease in mean arterial blood pressure at 200 mg/kg. In kind it is toxicity, organism-based. The settings on record: in vivo.
Data set [45] addresses Cytochrome P450 3A4 (Homo sapiens, UniProt P08684). Nature of the data set: Inhibition of CYP3A4 (unknown origin). Type of data set: ADME.

Active and inactive are the calls of the source.

Sequence of Mitogen-activated protein kinase 9 (Homo sapiens) (P45984 whole entry, looked up, the tested form may be a part): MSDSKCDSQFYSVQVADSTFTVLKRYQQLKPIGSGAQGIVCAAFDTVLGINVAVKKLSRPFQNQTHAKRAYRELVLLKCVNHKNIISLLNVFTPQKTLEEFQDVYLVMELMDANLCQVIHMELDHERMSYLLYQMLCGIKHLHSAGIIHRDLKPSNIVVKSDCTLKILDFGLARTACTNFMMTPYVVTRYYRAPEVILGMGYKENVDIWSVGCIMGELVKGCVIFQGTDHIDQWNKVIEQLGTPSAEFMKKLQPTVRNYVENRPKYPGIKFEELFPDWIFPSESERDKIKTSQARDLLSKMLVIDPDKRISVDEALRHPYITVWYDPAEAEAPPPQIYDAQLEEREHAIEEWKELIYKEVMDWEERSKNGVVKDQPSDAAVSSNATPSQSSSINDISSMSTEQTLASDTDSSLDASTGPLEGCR
Sequence of Cytochrome P450 3A4 (P08684 whole entry): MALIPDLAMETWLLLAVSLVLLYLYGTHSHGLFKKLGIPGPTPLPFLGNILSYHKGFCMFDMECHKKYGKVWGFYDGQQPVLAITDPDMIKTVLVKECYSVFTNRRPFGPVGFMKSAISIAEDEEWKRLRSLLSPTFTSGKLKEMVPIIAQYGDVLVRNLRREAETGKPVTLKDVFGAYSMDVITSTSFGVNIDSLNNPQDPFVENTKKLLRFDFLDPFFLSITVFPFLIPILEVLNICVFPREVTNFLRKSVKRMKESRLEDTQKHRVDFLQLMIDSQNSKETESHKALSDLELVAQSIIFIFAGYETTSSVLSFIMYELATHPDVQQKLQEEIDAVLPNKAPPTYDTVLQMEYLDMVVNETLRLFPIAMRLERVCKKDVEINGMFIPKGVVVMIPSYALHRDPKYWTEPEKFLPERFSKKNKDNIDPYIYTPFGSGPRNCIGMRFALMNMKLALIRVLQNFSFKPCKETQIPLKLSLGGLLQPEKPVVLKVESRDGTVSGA
Sequence of Calcium/calmodulin-dependent protein kinase type 1 (Homo sapiens) (Q14012 whole entry, looked up, the tested form may be a part): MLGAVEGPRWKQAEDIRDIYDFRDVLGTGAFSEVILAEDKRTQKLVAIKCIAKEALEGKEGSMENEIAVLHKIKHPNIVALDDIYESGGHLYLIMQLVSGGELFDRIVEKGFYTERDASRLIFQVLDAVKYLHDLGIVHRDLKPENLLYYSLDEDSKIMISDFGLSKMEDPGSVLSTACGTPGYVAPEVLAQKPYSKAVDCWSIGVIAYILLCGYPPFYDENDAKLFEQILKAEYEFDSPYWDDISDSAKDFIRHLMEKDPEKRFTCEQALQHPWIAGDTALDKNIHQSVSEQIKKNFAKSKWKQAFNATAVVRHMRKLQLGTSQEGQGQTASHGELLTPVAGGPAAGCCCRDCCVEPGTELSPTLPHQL
Sequence of Protein kinase C iota type (Homo sapiens) (P41743 whole entry, the tested form may be a part): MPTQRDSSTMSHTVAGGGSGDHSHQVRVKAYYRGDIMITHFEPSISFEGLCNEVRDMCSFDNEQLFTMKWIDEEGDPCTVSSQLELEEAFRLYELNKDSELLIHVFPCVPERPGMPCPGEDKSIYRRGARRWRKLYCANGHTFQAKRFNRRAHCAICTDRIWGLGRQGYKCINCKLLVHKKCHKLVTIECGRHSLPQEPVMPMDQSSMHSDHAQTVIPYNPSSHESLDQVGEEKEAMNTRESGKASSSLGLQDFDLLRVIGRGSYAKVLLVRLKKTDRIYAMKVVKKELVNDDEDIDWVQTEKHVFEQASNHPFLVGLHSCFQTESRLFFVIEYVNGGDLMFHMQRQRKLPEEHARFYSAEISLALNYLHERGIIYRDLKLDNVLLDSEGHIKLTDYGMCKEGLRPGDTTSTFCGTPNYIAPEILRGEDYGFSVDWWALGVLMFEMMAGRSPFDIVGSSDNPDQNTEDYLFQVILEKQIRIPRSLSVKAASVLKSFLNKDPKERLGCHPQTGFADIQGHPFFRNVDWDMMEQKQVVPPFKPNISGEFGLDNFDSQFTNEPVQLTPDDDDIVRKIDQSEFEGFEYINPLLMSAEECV
Sequence of Nuclear receptor subfamily 1 group I member 2 (O75469 whole entry): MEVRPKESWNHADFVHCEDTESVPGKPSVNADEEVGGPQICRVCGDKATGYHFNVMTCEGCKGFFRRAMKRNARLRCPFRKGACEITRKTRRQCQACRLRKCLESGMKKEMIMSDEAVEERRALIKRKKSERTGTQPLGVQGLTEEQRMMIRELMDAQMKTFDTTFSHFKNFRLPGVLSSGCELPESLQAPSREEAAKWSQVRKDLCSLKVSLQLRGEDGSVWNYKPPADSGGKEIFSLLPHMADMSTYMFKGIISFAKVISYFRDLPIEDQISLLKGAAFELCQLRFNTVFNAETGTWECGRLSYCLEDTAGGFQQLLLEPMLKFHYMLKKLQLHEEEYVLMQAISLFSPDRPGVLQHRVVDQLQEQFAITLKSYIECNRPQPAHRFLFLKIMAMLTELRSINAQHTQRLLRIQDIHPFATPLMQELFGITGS
Sequence of Serine/threonine-protein kinase 16 (Homo sapiens) (O75716 whole entry, the tested form may be a part): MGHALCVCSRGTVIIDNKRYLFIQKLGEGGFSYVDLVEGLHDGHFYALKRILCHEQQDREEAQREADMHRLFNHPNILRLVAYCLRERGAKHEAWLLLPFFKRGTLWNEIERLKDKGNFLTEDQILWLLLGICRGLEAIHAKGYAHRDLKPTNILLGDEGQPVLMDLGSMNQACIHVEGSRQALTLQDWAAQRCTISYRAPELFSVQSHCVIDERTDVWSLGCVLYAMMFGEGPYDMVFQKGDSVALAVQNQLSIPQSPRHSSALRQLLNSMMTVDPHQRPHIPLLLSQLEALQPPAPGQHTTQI
Sequence of Voltage-gated inwardly rectifying potassium channel KCNH2 (Q12809 whole entry): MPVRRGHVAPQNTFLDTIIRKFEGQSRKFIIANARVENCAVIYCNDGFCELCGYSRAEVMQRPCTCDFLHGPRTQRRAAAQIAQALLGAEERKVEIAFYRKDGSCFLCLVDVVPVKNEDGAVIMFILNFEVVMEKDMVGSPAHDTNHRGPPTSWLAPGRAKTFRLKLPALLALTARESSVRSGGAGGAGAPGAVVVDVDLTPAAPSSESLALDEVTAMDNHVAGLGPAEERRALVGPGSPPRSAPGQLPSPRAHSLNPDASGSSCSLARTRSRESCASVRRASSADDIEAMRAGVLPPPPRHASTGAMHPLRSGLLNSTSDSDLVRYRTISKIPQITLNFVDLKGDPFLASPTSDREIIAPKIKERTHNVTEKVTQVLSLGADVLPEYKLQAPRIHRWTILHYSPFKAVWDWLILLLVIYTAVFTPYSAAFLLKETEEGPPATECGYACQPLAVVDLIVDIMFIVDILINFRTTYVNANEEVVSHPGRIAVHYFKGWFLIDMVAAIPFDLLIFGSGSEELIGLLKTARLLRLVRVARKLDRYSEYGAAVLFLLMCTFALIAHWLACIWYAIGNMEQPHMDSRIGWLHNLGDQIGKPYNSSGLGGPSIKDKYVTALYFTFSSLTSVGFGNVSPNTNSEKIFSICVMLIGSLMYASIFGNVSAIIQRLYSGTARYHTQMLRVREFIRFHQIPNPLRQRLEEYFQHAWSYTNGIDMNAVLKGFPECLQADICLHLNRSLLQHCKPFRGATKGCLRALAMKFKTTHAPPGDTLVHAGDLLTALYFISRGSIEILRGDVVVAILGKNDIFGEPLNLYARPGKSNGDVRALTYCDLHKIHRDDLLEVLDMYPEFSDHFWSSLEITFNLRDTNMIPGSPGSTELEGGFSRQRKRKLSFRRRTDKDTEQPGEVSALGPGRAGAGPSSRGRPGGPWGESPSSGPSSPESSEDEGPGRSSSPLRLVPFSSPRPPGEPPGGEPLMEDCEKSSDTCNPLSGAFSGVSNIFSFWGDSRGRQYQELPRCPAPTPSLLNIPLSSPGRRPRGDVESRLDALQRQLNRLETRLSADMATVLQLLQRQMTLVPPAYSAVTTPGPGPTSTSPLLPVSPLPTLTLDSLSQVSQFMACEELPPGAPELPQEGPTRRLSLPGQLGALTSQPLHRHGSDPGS
Sequence of Serine/threonine-protein kinase DCLK2 (Homo sapiens) (Q8N568 whole entry, the tested form may be a part): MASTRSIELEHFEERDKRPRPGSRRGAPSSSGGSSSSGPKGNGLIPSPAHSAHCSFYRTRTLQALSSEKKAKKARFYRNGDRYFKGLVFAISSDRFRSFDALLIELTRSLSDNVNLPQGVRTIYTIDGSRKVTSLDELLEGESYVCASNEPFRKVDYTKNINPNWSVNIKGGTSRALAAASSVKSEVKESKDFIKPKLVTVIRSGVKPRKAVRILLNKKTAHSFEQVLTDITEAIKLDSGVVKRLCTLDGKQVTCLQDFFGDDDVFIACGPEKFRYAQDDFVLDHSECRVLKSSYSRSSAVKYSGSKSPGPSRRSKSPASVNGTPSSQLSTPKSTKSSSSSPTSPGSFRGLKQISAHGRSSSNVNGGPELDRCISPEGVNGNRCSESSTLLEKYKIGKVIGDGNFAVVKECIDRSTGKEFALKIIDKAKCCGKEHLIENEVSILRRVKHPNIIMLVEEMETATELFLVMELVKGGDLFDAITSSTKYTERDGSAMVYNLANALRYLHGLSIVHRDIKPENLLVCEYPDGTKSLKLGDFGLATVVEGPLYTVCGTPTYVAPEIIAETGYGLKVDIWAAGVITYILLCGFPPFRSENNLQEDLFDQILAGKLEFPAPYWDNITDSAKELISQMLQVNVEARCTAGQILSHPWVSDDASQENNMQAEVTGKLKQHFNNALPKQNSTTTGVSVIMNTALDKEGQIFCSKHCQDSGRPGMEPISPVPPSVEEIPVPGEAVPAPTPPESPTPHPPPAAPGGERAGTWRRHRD
Sequence of Casein kinase I isoform alpha (Homo sapiens) (P48729 2-337 limits assumed): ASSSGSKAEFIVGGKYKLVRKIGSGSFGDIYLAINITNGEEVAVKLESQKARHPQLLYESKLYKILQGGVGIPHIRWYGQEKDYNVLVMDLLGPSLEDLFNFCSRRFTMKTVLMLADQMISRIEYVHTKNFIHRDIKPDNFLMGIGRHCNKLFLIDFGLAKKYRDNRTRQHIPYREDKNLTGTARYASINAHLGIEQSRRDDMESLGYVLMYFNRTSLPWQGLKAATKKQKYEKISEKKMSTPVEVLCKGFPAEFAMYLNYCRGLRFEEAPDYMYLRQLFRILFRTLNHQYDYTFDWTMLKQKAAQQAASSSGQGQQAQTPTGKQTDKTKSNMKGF

As usually defined, the clearance is the volume of plasma or blood freed of the substance per unit of time. As a reminder, the bioavailability is dose-corrected exposure relative to a reference, in per cent. Consider `CC1(C)[C@H](Nc2c(C(N)=O)cnn3cc(-c4ccccc4)cc23)CC[C@]1(C)N`, for which the result in [1] was inactive. Moreover, in [2], the CL is recorded as 32%. This molecule also yielded a clearance in data set [3] of 29 mL/min/kg. For the same molecule, the values for the concentration at 24 h in data set [4] and in data set [7] were 60 nM and 390 nM, respectively. Further, the Activity in data set [5] is 95%. For the same molecule, in data set [6], the result was Active. This molecule also gave a bioavailability in data set [8] of 67%.

For orientation: Cmax means the peak of the concentration-time curve. The term half-life denotes the time needed for the level to fall by half in the phase considered. The AUC is concentration integrated over time. One may read the inhibition as the share of the control response that was lost under treatment. As usually defined, the IC50 is the concentration at which inhibition is half-maximal. Usually Tmax stands for the time at which the peak concentration occurs. As usually defined, the EC50 is the concentration that produces a half-maximal response. On to `COc1ccc(-c2cc3c(N[C@@H]4CC[C@](C)(N)C4(C)C)c(C(N)=O)cnn3c2)cn1`, for which the Activity result in data set [9] is “Toxic”; in data set [10], 93%; in data set [15], 100%; in data set [18], “Toxic”; in data set [21], 14%; in [22], 93%. Further, the Activity was found to be 88% in data set [23]; 100% in [26]; 84% in [28]; 100% in data set [29]; 87% in data set [30]; 100% in data set [31]. In addition, the Activity in data set [33] is 100%; in [34] it was 100%; in [44] it was “Toxic”. Besides, the values for the maximum concentration (Cmax) in data set [11] and in data set [41] were 1100 nM and 600 nM, respectively. Further, the half-life in [12] is > 1.5 h; in [25] it was 6.5 h; in [32], 10.2 h; in data set [38] it was 12.2 h. Moreover, the remaining at 10 min in data set [13] was 95%. In addition, in [14], the Papp A→B amounted to 2.6 ×10⁻⁶ cm/s. Also, the Vd in data set [16] was 11.5 L/kg; in data set [20], 8.2 L/kg. Also, in [17], the “Ratio IC50” value was 130. Further, the figures for the AUC in data set [19], in data set [24] and in data set [37] were 5.8 µM·h, 12.9 µM·h and 4.9 µM·h, respectively. The inhibition turned out to be 16% in [27] and 71% in data set [42]. Also, the concentration for half-maximal inhibition (IC50) in data set [35] amounted to 3 µM; in data set [45], 11 µM. The fraction unbound in data set [36] was 0.12; in [40], 0.1. Further, the Tmax in data set [39] was 4 h. Moreover, in [43], the 50% effective concentration (EC50) is > 17 µM.
